Measurements reported in US9840583B2, “Fluorescent polymers and applications thereof” (Board of Regents, The University of Texas System, priority 2013, dated 2017).

Assay: Photostability under continuous UV excitation
Assay type: physicochemical
Settings: continuous UV excitation for 3 h
Protocol: The photostability of ABPLP micelles was also investigated and compared to the organic fluorescent dye rhodamine-B. The fluorescence intensity of the ABPLP micelle solution decreased by only 1 percent of the initial intensity after continuous UV excitation for 3 h, indicating excellent photostability. In contrast, rhodamine-B lost almost 10 percent of initial fluorescence intensity within the same experimental period.

Loss of initial fluorescence intensity: ~10%
SMILES: CCN(CC)c1ccc2c(-c3ccccc3C(=O)O)c3ccc(=[N+](CC)CC)cc-3oc2c1.[Cl-] [rhodamine-B]
